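Tested at 5 concentrations; 48 h exposure; 96-well plates; endpoints linearly interpolated, else capped at highest concentration. The concentration for 50% growth inhibition is given as GI50.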 Calls of active or inactive are those of the source. Cut-off read from the data, not from the text of the source: active = GI50 up to about 1.1 µM and inactive = higher.
How the values were obtained:
Experiment in all cases: DTP human tumour cell line panel, 48 h
LOX IMVI = system: LOX IMVI
UACC-62 = system: UACC-62
CCRF-CEM = system: CCRF-CEM
SW-620 = system: SW-620
OVCAR-4 = system: OVCAR-4
A498 = system: A498
HOP-62 = system: HOP-62
K562 = system: K562
MDA-MB-231 = system: MDA-MB-231
HCC 2998 = system: HCC 2998
KM12 = system: KM12
EKVX = system: EKVX
SF-295 = system: SF-295
RPMI-8226 = system: RPMI-8226
COLO 205 = system: COLO 205
SF-539 = system: SF-539
A549 = system: A549
MDA-MB-435 = system: MDA-MB-435
UACC-257 = system: UACC-257
OVCAR-3 = system: OVCAR-3

SMILES | GI50 (LOX IMVI) | GI50 (UACC-62) | GI50 (CCRF-CEM) | GI50 (SW-620) | GI50 (OVCAR-4) | GI50 (A498) | GI50 (HOP-62) | GI50 (K562) | GI50 (MDA-MB-231) | GI50 (HCC 2998) | GI50 (KM12) | GI50 (EKVX) | GI50 (SF-295) | GI50 (RPMI-8226) | GI50 (COLO 205) | GI50 (SF-539) | GI50 (A549) | GI50 (MDA-MB-435) | GI50 (UACC-257) | GI50 (OVCAR-3)
COc1nn(Cc2ccccn2)c2ccc([N+](=O)[O-])cc12 | 53.6 µM (inactive) | 38.3 µM (inactive) | 76.2 µM (inactive) | 63 µM (inactive) | > 100 µM (inactive) | 30.3 µM (inactive) | > 100 µM (inactive) | 31 µM (inactive) | 57.4 µM (inactive) | 84.7 µM (inactive) | > 100 µM (inactive) | 56.1 µM (inactive) | > 100 µM (inactive) | 54.8 µM (inactive) | > 100 µM (inactive) | 27.4 µM (inactive) | > 100 µM (inactive) | 32.7 µM (inactive) | 94 µM (inactive) | > 100 µM (inactive)
NCCN1C(=O)c2ccccc2C1c1ccc(Cl)cc1 (configuration not stated) | > 100 µM (inactive) | > 100 µM (inactive) | > 100 µM (inactive) | > 100 µM (inactive) | > 100 µM (inactive) | > 100 µM (inactive) | > 100 µM (inactive) | > 100 µM (inactive) | > 100 µM (inactive) | > 100 µM (inactive) | > 100 µM (inactive) | > 100 µM (inactive) | > 100 µM (inactive) | > 100 µM (inactive) | > 100 µM (inactive) | > 100 µM (inactive) | > 100 µM (inactive) | > 100 µM (inactive) | > 100 µM (inactive) | > 100 µM (inactive)
C[N+](C)(C)CC1CCc2ccccc2C1=O (configuration not stated) | 18.7 µM (inactive) | 5.42 µM (inactive) | 2.55 µM (inactive) | 1.68 µM (inactive) | 4.75 µM (inactive) | 26.2 µM (inactive) | 26.4 µM (inactive) | 1.79 µM (inactive) | 7.13 µM (inactive) | 15.3 µM (inactive) | 10.8 µM (inactive) | 7.76 µM (inactive) | 34.1 µM (inactive) | 1.43 µM (inactive) | 7.55 µM (inactive) | 15.8 µM (inactive) | 26.3 µM (inactive) | 5.62 µM (inactive) | 12.2 µM (inactive) | 4.49 µM (inactive)
CC1(C)[C@@H](Cn2nnc3c(N)ncnc32)CC[C@@]1(C)CO | > 100 µM (inactive) | > 100 µM (inactive) | > 100 µM (inactive) | > 100 µM (inactive) | > 100 µM (inactive) | > 100 µM (inactive) | > 100 µM (inactive) | > 100 µM (inactive) | > 100 µM (inactive) | 12.6 µM (inactive) | > 100 µM (inactive) | > 100 µM (inactive) | > 100 µM (inactive) | > 100 µM (inactive) |  | > 100 µM (inactive) | > 100 µM (inactive) | > 100 µM (inactive) | > 100 µM (inactive) | > 100 µM (inactive)
COc1cccc(-c2cc(O)c3cccnc3n2)c1 | 0.0867 µM (active) | 0.0662 µM (active) | 0.0603 µM (active) | 0.0809 µM (active) | > 40.5 µM (inactive) | 0.516 µM (active) | 0.104 µM (active) | 0.0339 µM (active) | 1.27 µM (inactive) | 0.251 µM (active) | 0.0581 µM (active) |  | 0.075 µM (active) | 0.195 µM (active) | 0.0771 µM (active) | 0.102 µM (active) | 0.102 µM (active) | 0.0164 µM (active) | > 100 µM (inactive) | 0.0571 µM (active)
C=CCNC(=O)NNC(O)(C(=O)OCC)C(F)(F)F (configuration not stated) | > 100 µM (inactive) |  | > 100 µM (inactive) | > 100 µM (inactive) | > 100 µM (inactive) | > 100 µM (inactive) | > 100 µM (inactive) | > 100 µM (inactive) | > 100 µM (inactive) | > 100 µM (inactive) | > 100 µM (inactive) | > 100 µM (inactive) |  | > 100 µM (inactive) | > 100 µM (inactive) | > 100 µM (inactive) | > 100 µM (inactive) | > 100 µM (inactive) | > 100 µM (inactive) | > 100 µM (inactive)
CCC1CCN/C(=N/S(=O)(=O)c2cc(C)c(Cl)cc2S)N1 (configuration not stated) | 24.1 µM (inactive) | 14 µM (inactive) | 25.9 µM (inactive) | 28.7 µM (inactive) | 24.3 µM (inactive) | > 100 µM (inactive) | 24.3 µM (inactive) | 32.4 µM (inactive) | 44.8 µM (inactive) | 43.2 µM (inactive) |  | 32.5 µM (inactive) |  | 24.2 µM (inactive) | 39.2 µM (inactive) | 29.4 µM (inactive) | > 100 µM (inactive) | 22.9 µM (inactive) | 42.9 µM (inactive) | 
COc1cc2c(cc1OC)CC1c3cc(OC)c(OC)cc3CCN1CC2 (configuration not stated) |  | 67 µM (inactive) | > 100 µM (inactive) | 84.1 µM (inactive) | > 100 µM (inactive) | > 100 µM (inactive) | > 100 µM (inactive) | 89.7 µM (inactive) | > 100 µM (inactive) | > 100 µM (inactive) | > 100 µM (inactive) | > 100 µM (inactive) | 95.1 µM (inactive) | 41.8 µM (inactive) | > 100 µM (inactive) | 58.7 µM (inactive) | > 100 µM (inactive) | 40.3 µM (inactive) | > 100 µM (inactive) | > 100 µM (inactive)

From ChEMBL document CHEMBL1201862, “PubChem BioAssay data set” (2004)
